Publication PMC10098502, “Characterization of the molecular mechanisms of silicon uptake in coccolithophores” (Environmental Microbiology, 2022)

Tested on: T1, CbSITL
T1 construct: gene SITL
Details: Na+-dependent; 150 mM external NaCl, 50 mM Tris pH 7.4, internal 150 mM KCl and 6 mM Zn acetate, valinomycin; sigmoidal rate curve

`O[Si](O)(O)O` [silicic acid] was tested, and the Km was 31.8 ± 2.5 µM.
